# Experimental data taken from ChEMBL document CHEMBL1201862, “PubChem BioAssay data set” (2004).
# Activity calls are given as the source filed them.
# Assays:
# Protein skinhead-1 = target: T1, Protein skinhead-1 (Caenorhabditis elegans, UniProt P34707); type: functional
# T1 sequence (P34707 whole entry): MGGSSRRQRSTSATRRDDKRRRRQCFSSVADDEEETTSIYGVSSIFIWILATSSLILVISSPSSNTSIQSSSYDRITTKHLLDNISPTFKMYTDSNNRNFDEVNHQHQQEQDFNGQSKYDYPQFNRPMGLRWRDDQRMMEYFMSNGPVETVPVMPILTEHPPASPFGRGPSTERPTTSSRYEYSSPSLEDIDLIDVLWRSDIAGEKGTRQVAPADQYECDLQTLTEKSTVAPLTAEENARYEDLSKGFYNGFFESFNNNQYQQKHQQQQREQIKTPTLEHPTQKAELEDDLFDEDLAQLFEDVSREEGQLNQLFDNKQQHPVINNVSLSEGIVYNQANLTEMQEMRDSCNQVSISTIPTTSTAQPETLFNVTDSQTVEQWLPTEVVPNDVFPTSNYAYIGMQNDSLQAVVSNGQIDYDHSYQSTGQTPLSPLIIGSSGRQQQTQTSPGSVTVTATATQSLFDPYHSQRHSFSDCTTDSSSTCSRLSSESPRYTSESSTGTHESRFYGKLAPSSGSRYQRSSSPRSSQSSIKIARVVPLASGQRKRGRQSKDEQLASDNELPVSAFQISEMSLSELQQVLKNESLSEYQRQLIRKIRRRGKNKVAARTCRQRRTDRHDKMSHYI
# cells [1] = type: functional, cell-based
# cells [2] = type: functional, cell-based; remark: listed apart in the source
# Large T antigen = Large T antigen (Simian virus 40, UniProt P03070); type: functional, Betapolyomavirus macacae;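 note: Confirmatory-stage PubChem screen for compounds that inhibit SV40 T antigen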
# [3] = microbe, parasite or virus in culture; type: functional; conditions: Mycobacterium tuberculosis
# Cytochrome P450 2C19 = Cytochrome P450 2C19 (Homo sapiens, UniProt P33261); assay: Cytochrome panel assay with activity outcomes. Panel member name: p450-cyp2c19 Compounds with AC50 equal or less than 10 uM are considered active; type: functional; conditions: read-out: AC50
# Cytochrome P450 1A2 = target: T2, Cytochrome P450 1A2 (Homo sapiens, UniProt P05177);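 note: PubChem cytochrome P450 panel assay, CYP1A2 panel member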
# T2 sequence (P05177 whole entry): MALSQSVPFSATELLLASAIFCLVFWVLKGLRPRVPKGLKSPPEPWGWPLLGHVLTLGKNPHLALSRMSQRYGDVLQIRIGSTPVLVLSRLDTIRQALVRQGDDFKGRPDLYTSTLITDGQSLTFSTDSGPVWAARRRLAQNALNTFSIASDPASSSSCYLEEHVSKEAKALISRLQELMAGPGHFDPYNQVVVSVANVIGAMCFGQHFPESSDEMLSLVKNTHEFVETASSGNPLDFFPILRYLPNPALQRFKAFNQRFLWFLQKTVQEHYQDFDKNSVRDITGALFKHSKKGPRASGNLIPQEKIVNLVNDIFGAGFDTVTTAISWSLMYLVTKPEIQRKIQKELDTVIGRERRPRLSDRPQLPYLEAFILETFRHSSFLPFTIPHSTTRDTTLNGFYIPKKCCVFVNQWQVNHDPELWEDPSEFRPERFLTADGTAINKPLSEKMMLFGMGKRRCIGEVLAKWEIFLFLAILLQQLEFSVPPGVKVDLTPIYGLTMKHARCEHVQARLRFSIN
# Cytochrome P450 3A4 = Cytochrome P450 3A4 (Homo sapiens, UniProt P08684);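 note: CYP3A4 tested as one member of a cytochrome P450 panel screen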
# [4] = inhibitors of firefly luciferase expression or activity, dose response, H4 neuroglioma cells, luminescence (AID 1990); type: functional, cell-based
# [5] = Luminescence Cell-Based Dose Response HTS to Identify Inhibitors of 5'UTR Stem-Loop Driven Prion Protein mRNA Translation in H4 Neuroglioblastoma Cells. [Related pubchem assays: 1827 (Project Summary), 1813 (Primary HTS)]; type: functional
# [6] = inhibitors of SNCA 5'UTR-driven reporter translation, confirmation, H4 neuroglioma cells, luminescence (AID 1988); type: functional, cell-based
# [7] = growth suppression of PTEN-null colon cells, dose response, cell-based, HCT116 PTEN knockout (AID 1047); type: functional;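 note: HCT116 colon tumor cells with PTEN knocked out; cells exposed to compound for 60 hours before readout; potency for loss of cell viability measured by luminescence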
# [8] = growth suppression of beta-catenin-knockout colon cells, dose response, cell-based, HCT116, human colon tumor (AID 1045); type: functional;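 note: HCT116 colon tumor cells with beta catenin knocked out; cells exposed to compound for 60 hours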
# [9] = Luminescence Cell-Based Dose Retest to Confirm Inhibitors of Cancer Stem Cells. [Related pubchem assays (depositor defined):AID2717, AID2721]; type: functional; conditions: Homo sapiens
# H9c2 = assay: cells; type: functional, cell-based; conditions: Rattus norvegicus, H9c2, Myocardium;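 note: confirmatory concentration-response retest of ultra-high-throughput screening hits for modulation of myocardial damage; cell death induced by hydrogen peroxide oxidative stress; compound pretreatment for 60 min then peroxide exposure for 2 h; potency is for protecting the cells against peroxide damage rather than for killing them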
# [10] = ZM109 Env clade C HIV-1 fusion inhibitors, dose response, HeLa effector, CEM target cells, luciferase, cherry-pick (AID 652058); type: functional, cell-based
# Sequence of Cytochrome P450 2C19 (P33261 whole entry): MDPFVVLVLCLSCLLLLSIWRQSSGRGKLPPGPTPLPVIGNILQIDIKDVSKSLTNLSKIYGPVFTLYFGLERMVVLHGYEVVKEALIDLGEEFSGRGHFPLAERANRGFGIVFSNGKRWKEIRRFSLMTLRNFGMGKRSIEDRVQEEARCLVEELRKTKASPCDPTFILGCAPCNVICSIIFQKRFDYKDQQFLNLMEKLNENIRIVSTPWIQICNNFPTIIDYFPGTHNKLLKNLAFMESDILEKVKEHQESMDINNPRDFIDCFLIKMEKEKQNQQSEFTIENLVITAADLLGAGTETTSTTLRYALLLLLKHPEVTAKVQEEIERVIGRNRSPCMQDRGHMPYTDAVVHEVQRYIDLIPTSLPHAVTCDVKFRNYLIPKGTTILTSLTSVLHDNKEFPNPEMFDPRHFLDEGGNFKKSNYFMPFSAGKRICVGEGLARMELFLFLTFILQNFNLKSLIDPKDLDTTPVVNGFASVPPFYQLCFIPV
# Sequence of Large T antigen (P03070 whole entry): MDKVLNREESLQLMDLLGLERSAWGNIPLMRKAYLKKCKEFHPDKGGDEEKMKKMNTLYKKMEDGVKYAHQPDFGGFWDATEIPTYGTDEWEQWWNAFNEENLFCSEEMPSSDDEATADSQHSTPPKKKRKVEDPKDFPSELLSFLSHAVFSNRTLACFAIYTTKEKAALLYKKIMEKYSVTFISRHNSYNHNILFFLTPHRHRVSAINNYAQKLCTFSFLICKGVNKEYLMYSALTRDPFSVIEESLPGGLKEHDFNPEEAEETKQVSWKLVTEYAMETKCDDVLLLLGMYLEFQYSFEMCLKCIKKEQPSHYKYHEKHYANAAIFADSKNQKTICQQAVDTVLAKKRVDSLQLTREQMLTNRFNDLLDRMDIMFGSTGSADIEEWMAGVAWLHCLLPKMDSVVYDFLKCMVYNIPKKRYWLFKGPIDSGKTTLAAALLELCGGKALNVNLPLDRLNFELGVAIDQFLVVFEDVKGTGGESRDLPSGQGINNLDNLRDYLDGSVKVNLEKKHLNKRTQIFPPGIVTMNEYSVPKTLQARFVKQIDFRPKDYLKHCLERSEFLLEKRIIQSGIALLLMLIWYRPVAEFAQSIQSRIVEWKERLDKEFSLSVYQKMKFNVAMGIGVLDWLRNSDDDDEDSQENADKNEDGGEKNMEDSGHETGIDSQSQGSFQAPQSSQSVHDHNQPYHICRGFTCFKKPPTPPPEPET
# Sequence of Cytochrome P450 3A4 (P08684 whole entry): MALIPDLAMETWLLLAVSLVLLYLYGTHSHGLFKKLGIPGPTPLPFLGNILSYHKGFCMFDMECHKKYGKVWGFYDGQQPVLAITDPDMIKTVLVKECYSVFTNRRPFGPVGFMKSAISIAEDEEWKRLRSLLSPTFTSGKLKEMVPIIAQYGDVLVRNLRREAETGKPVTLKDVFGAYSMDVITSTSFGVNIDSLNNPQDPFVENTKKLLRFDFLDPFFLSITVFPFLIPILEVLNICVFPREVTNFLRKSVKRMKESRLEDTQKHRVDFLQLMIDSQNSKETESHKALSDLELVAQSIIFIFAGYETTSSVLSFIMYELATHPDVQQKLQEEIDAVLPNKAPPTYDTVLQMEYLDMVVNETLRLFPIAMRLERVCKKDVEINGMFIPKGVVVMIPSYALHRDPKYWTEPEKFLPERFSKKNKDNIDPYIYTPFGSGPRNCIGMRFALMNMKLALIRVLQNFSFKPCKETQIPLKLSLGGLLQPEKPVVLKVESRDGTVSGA
smiles,measurement,setting,value
CCCCCCCCNC(=O)C(CCC(=O)OCc1ccccc1)NC(C)=O (stereo not drawn),IC50,Protein skinhead-1,> 100 µM (inactive)
CCCn1cc(NC(=O)c2cc(-c3ccccc3)on2)cn1,EC50,cells [1],143 µM (active)
same,EC50,cells [2],2.49 µM (active)
COc1cccc(-c2cc(C(F)(F)F)n3nc(C(=O)N4CCC5(CC4)OCCO5)cc3n2)c1,EC50,cells [1],> 350 µM (not active)
same,EC50,cells [2],> 350 µM (not active)
Cc1cc2c(N=O)c(NO)ccc2[nH]1,IC50,Large T antigen,29.3 µM (active)
same,CC50,[3],5.53 µM (active)
CCC(=O)Nc1nc(CC(=O)Nc2ccccc2OC)cs1,IC50,Protein skinhead-1,> 100 µM (inactive)
COc1ccc(NC(=O)Nc2ccc(CC(=O)O)cc2)cc1,EC50,cells [1],> 350 µM (not active)
same,EC50,cells [2],139 µM (active)
CCc1ccc2nc(O)c(CN(CCCN3CCOCC3)C(=O)Nc3cccc(Cl)c3)cc2c1,CC50,[3],15 µM (active)
CC(C)(C)CC(=O)NC(=S)N1CCCCCC1,AC50,Cytochrome P450 2C19,39.8 µM (inconclusive)
same,IC50,Protein skinhead-1,> 100 µM (inactive)
same,AC50,Cytochrome P450 1A2,15.8 µM (inconclusive)
same,AC50,Cytochrome P450 3A4,12.6 µM (inconclusive)
COC(=O)CC1C(=O)NCCN1C(=O)CSc1nnc(Nc2ccc(OC)cc2)s1 (stereo not drawn),EC50,cells [1],> 350 µM (not active)
same,EC50,cells [2],> 350 µM (not active)
CCOc1ccc(C(=O)NCC2CCCO2)cc1OCC (stereo not drawn),EC50,cells [1],> 350 µM (not active)
same,EC50,cells [2],> 350 µM (not active)
O=C(c1cc(COc2ccc(F)cc2F)on1)N1CCCC(c2ccccc2)C1 (stereo not drawn),CC50,[3],> 40 µM (active)
C=CCn1c(CC(=O)Nc2cccc(OC)c2)nnc1SCC(=O)NC1CCCCC1,IC50,Protein skinhead-1,> 100 µM (inactive)
S=C(NN=C1CCN(Cc2ccccc2)CC1)NC1CCCCC1,EC50,[4],> 120 µM (not active)
same,EC50,[5],> 120 µM (not active)
same,EC50,[6],> 120 µM (not active)
same,CC50,[3],> 40 µM (active)
O=C(Nc1ccc2c(c1)OCO2)c1cccc(F)c1,IC50,Protein skinhead-1,> 100 µM (inactive)
CCOC(=O)C(C)(C)N(Cc1ccc(Cl)cc1)S(=O)(=O)c1ccc(Cl)c([N+](=O)[O-])c1,EC50,[7],14.7 µM (active)
same,EC50,[8],8.15 µM (active)
same,AC50,[9],2.07 µM (active)
Cc1sc2nc(CN(C(=O)NC3CCCCC3)C3CCCC3)nc(O)c2c1C,CC50,[3],> 40 µM (active)
COc1ccc(NS(=O)(=O)c2ccc3c(c2)n(C)c(=O)n3C)cc1,IC50,Protein skinhead-1,> 100 µM (inactive)
CC(C)c1nc(CNC(=O)CCc2nnc(-c3ccsc3)o2)cs1,EC50,cells [1],> 350 µM (not active)
same,EC50,cells [2],> 350 µM (not active)
Cc1cc(C)cc(NC(=O)CSc2ccc(-c3ccccn3)nn2)c1,EC50,[4],11.7 µM (active)
same,EC50,cells [1],> 350 µM (not active)
same,EC50,[5],9.74 µM (active)
same,EC50,[6],8.69 µM (active)
same,EC50,cells [2],> 350 µM (not active)
same,AC50,[9],4.57 µM (active)
same,IC50,H9c2,> 79 µM (inactive)
Cn1cc(C(=O)c2ccc(Cl)cc2)cc1-c1nc2ccccc2n1C,CC50,[3],> 40 µM (active)
CCCCCCn1c(COc2ccccc2F)nnc1SCC(=O)N1c2ccccc2NC(=O)C1(C)C,EC50,[7],23.5 µM (active)
same,EC50,[8],26.5 µM (active)
Cc1ccc(C)c(-c2cc(C(=O)Nc3cccc(C(=O)O)c3)c3ccccc3n2)c1,EC50,cells [1],> 350 µM (not active)
same,EC50,cells [2],> 350 µM (not active)
CCOC(=O)C1=C(COC(=O)c2ccc(Cl)cc2[N+](=O)[O-])NC(=O)NC1C (stereo not drawn),IC50,Protein skinhead-1,> 100 µM (inactive)
CC(C)NC(=O)CN(C)S(=O)(=O)c1ccc(F)cc1,IC50,Protein skinhead-1,> 100 µM (inactive)
O=C(Nc1ccc(F)cc1)Nc1ccc2c(c1)[C@@H]1C[C@H](CC(=O)N3CCCCC3)O[C@H](CO)[C@@H]1O2,AC50,[10],62.5 µM (active)
CCc1[nH]nc2c1/C(=N\O)CC(c1ccccc1)C2 (stereo not drawn),EC50,[7],61.3 µM (active)
same,EC50,[8],91.4 µM (active)
CCC(/C=C(\O)c1cccnc1)=N\c1ccc(C)c(C)c1,CC50,[3],> 40 µM (active)
O=[N+]([O-])c1cccc(/C=N/Nc2nc(C(Cl)(Cl)Cl)nc3ccccc23)c1,EC50,[7],24.4 µM (active)
same,EC50,[8],25.2 µM (active)
